The text below walks through data of ChEMBL document CHEMBL1131895, “Proteasome inhibition by the natural products epoxomicin and dihydroeponemycin: insights into specificity and potency” (Bioorg Med Chem Lett, 1999).

Holding throughout (type): functional
The nature of assay [1]: Inhibition of the trypsin-like activity.
A short description of assay [2]: Inhibition of the chymotrypsin-like activity.
Assay [3] in a line: Inhibition of the PGPH-like activity.
The nature of assay [4]: Antiproliferative activity of the compound.

As for `CC(C)CCCCC(=O)NC(C(=O)NC(CC(C)C)C(=O)[C@@]1(CO)CO1)[C@@H](C)O` (some centres not stated), the k obs / 1 in assay [1] was determined as 5 M⁻¹ s⁻¹; in assay [2], 22 M⁻¹ s⁻¹; in assay [3], 50 M⁻¹ s⁻¹. The IC50 (in general, the midpoint of a concentration-inhibition curve) in assay [4] came to 850 nM.
Take `CC(C)CCCCC(=O)NC(CO)C(=O)N[C@H](CC(C)C)C(=O)[C@@]1(CO)CO1` (some centres not stated): the k obs / 1 in assay [1] turned out to be 17 M⁻¹ s⁻¹; in assay [2], 58 M⁻¹ s⁻¹; in assay [3], 175 M⁻¹ s⁻¹. For the same molecule, in assay [4], 100 nM corresponded to half-maximal inhibition (IC50).
Consider `CC[C@H](C)[C@H](NC(=O)[C@H]([C@@H](C)CC)N(C)C(C)=O)C(=O)NC(CO)C(=O)NC(CC(C)C)C(=O)[C@@]1(CO)CO1` (single isomer, unassigned), for which the k obs / 1 came out at 470 M⁻¹ s⁻¹ in assay [1], 17000 M⁻¹ s⁻¹ in assay [2] and 35 M⁻¹ s⁻¹ in assay [3]. Moreover, half-maximal inhibition in assay [4] (IC50) required 140 nM.
Regarding `CC[C@H](C)[C@H](NC(=O)[C@H]([C@@H](C)CC)N(C)C(C)=O)C(=O)NC(C(=O)NC(CC(C)C)C(=O)[C@@]1(C)CO1)[C@@H](C)O` (single isomer, unassigned) [EPOXOMYCIN], the k obs / 1 in assay [1] is 310 M⁻¹ s⁻¹; in assay [2], 20000 M⁻¹ s⁻¹; in assay [3], 43 M⁻¹ s⁻¹. Inhibition in assay [4] was half-maximal at 4 nM (IC50).
As to `CC(C)CCCCC(=O)NC(C(=O)NC(CC(C)C)C(=O)[C@@]1(C)CO1)[C@@H](C)O` (some centres not stated), the k obs / 1 in assay [1] is 4 M⁻¹ s⁻¹; in assay [2], 25 M⁻¹ s⁻¹; in assay [3] it was 45 M⁻¹ s⁻¹. The same molecule yielded an IC50 in assay [4] of 520 nM.
For the molecule `CC[C@H](C)[C@H](NC(=O)[C@H]([C@@H](C)CC)N(C)C(C)=O)C(=O)NC(CO)C(=O)NC(CC(C)C)C(=O)[C@@]1(C)CO1` (single isomer, unassigned), the values for the k obs / 1 in assay [1], in assay [2] and in assay [3] were 1100 M⁻¹ s⁻¹, 32000 M⁻¹ s⁻¹ and 90 M⁻¹ s⁻¹, respectively. For the same molecule, in assay [4], the IC50 stood at 4 nM.
For `CC[C@H](C)[C@H](NC(=O)[C@H]([C@@H](C)CC)N(C)C(C)=O)C(=O)NC(C(=O)NC(CC(C)C)C(=O)[C@@]1(CO)CO1)[C@@H](C)O` (single isomer, unassigned), the k obs / 1 in assay [1] was 290 M⁻¹ s⁻¹; in assay [2] it was 18000 M⁻¹ s⁻¹; in assay [3] it was 37 M⁻¹ s⁻¹. The molecule also yielded a concentration for half-maximal inhibition (IC50) in assay [4] of 60 nM.
As for `CC(C)CCCCC(=O)NC(CO)C(=O)N[C@H](CC(C)C)C(=O)[C@@]1(C)CO1` (some centres not stated), the figures for the k obs / 1 in assay [1], in assay [2] and in assay [3] were 5 M⁻¹ s⁻¹, 34 M⁻¹ s⁻¹ and 57 M⁻¹ s⁻¹, respectively. In assay [4], this molecule yielded an IC50 of 260 nM.
